Source: ChEMBL document CHEMBL1201862, “PubChem BioAssay data set” (2004)
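Interpolation was linear, between the two tested concentrations surrounding the appropriate level; five concentrations were tested over 48 hours in 96-well plates. At the GI50, growth is halved.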 Active and inactive are the calls of the source. No stated cut-off is given here; in the data, active = GI50 up to about 1.1 µM and inactive = higher.

What was measured:
Assay in all cases: inhibition of tumour cell growth, NCI panel, 48 h
[1] = tested on: MOLT-4
[2] = tested on: SK-OV-3
[3] = tested on: HT-29
[4] = tested on: ACHN
[5] = tested on: UACC-62
[6] = tested on: LOX IMVI
[7] = tested on: SNB-19
[8] = tested on: SNB-75
[9] = tested on: PC-3
[10] = tested on: MDA-MB-231
[11] = tested on: OVCAR-5
[12] = tested on: SK-MEL-2
[13] = tested on: SN12C
[14] = tested on: NCI-H226
[15] = tested on: OVCAR-4
[16] = tested on: COLO 205
[17] = tested on: NCI/ADR-RES
[18] = tested on: Hs-578T
[19] = tested on: OVCAR-8
[20] = tested on: UO-31
[21] = tested on: SK-MEL-5
[22] = tested on: SF-268
[23] = tested on: Malme-3M
[24] = tested on: UACC-257
[25] = tested on: HOP-92
[26] = tested on: EKVX
[27] = tested on: IGROV-1
[28] = tested on: BT-549
[29] = tested on: HOP-62
[30] = tested on: HCT-15
[31] = tested on: M14
[32] = tested on: NCI-H460
[33] = tested on: SW-620
[34] = tested on: MCF7
[35] = tested on: OVCAR-3
[36] = tested on: A549
[37] = tested on: NCI-H522
[38] = tested on: SR
[39] = tested on: T47D
[40] = tested on: SF-295
[41] = tested on: DU-145
[42] = tested on: U-251
[43] = tested on: CCRF-CEM
[44] = tested on: SF-539
[45] = tested on: A498
[46] = tested on: HCT-116
[47] = tested on: CAKI-1
[48] = tested on: SK-MEL-28
[49] = tested on: KM12
[50] = tested on: RXF 393
[51] = tested on: K562
[52] = tested on: TK-10
[53] = tested on: 786-0
[54] = tested on: MDA-MB-435
[55] = tested on: RPMI-8226
[56] = tested on: NCI-H23

Measured: GI50

CC(C)(C)[Si](C)(C)OCC1OC(n2cc(I)c(=O)[nH]c2=O)C(O[Si](C)(C)C(C)(C)C)C1O[Si](C)(C)C(C)(C)C (stereo unspecified)
29.8 µM: [30]
inactive: [1] 10.7 µM | [2] 32.1 µM | [3] 14.3 µM | [4] 15.2 µM | [5] 16.7 µM | [6] 12.5 µM | [7] 19.5 µM | [8] 16.1 µM | [9] 7.24 µM | [10] 15.3 µM | [11] 24.8 µM | [12] > 10 µM | [13] 26.9 µM | [14] 25.6 µM | [15] 55.8 µM | [16] 19.1 µM | [17] > 100 µM | [18] 18.6 µM | [19] 12.7 µM | [20] 23.8 µM | [21] 16.6 µM | [22] 21.1 µM | [23] 53.3 µM | [24] 10.5 µM | [25] 22.1 µM | [26] 22 µM | [27] 17.7 µM | [28] 24 µM | [29] 20.1 µM | [31] 15.7 µM | [32] 15.5 µM | [33] 14.6 µM | [34] 12.9 µM | [35] 14.3 µM | [36] 11.4 µM | [37] 9.68 µM | [38] 28.1 µM | [39] 17.1 µM | [40] 15.2 µM

COC(=O)c1cccc(COc2ccc([N+](=O)[O-])cc2Cl)c1
70.5 µM: [30]
inactive: [1] > 100 µM | [41] > 100 µM | [2] > 100 µM | [3] > 100 µM | [4] 53.3 µM | [5] 43.4 µM | [6] 85.5 µM | [7] > 100 µM | [8] > 100 µM | [9] > 100 µM | [42] 83.2 µM | [43] 63.4 µM | [10] 82.8 µM | [11] > 100 µM | [44] > 100 µM | [45] 36.5 µM | [12] > 100 µM | [13] 49 µM | [14] 43.2 µM | [46] > 100 µM | [15] 58.3 µM | [16] > 100 µM | [17] > 100 µM | [18] 60.1 µM | [19] > 100 µM | [20] 98.9 µM | [47] 56 µM | [48] > 100 µM | [21] 51.1 µM | [49] > 100 µM | [50] > 100 µM | [51] 72.4 µM | [22] > 100 µM | [23] > 100 µM | [24] > 100 µM | [25] 44.5 µM | [26] 37.4 µM | [52] > 100 µM | [27] > 100 µM | [28] > 100 µM | [53] > 100 µM | [29] > 100 µM | [31] > 100 µM | [32] > 100 µM | [33] > 100 µM | [54] > 100 µM | [34] > 100 µM | [35] 63.4 µM | [36] 42.5 µM | [37] 63.7 µM | [55] 89.7 µM | [38] > 100 µM | [39] > 100 µM | [40] > 100 µM | [56] > 100 µM

O=S(=O)(O)Oc1cc2c(c(OS(=O)(=O)O)c1)C[C@H](OS(=O)(=O)O)[C@@H](c1ccc(OS(=O)(=O)O)c(OS(=O)(=O)O)c1)O2
> 100 µM: [30]
inactive: [1] > 100 µM | [2] > 100 µM | [3] > 100 µM | [4] > 100 µM | [5] > 100 µM | [6] > 100 µM | [7] > 100 µM | [8] 43.6 µM | [9] > 100 µM | [10] 85.7 µM | [11] > 100 µM | [12] > 100 µM | [13] > 100 µM | [14] > 100 µM | [15] > 100 µM | [16] > 100 µM | [17] > 100 µM | [18] > 100 µM | [19] > 100 µM | [20] > 100 µM | [21] > 100 µM | [22] > 100 µM | [23] > 100 µM | [24] > 100 µM | [25] > 100 µM | [26] > 100 µM | [27] > 100 µM | [28] > 100 µM | [29] > 100 µM | [31] > 100 µM | [32] > 100 µM | [33] > 100 µM | [34] > 100 µM | [35] > 100 µM | [36] > 100 µM | [37] > 100 µM | [38] > 100 µM | [39] > 100 µM | [40] > 100 µM
